Reference: patent US20020037544A1 (priority 1998, published 2002)
“Also recorded” adds a separate entry of the source. One block for each molecule: values may come before it.

Key:
p42 and p44 MAP kinase = assay: immunoblot for activated forms of p42 and p44 MAP kinase in HUVEC; type: cell-based, Human; details: for amount of activated (phosphorylated) p42/p44 MAP kinase: 10 μM histamine, 200 nM phorbol 12,13 dibutyrate
Protocol: (§1) Human umbilical vein endothelial cells (HUVEC), pooled donors, were from BioWhitaker and cultured in EGM on collagen-coated plastic (Falcon) according to the supplier's instructions. The cells were cultured in medium in the presence of 100 U/ml penicillin and 100 μg/ml streptomycin at 37° C. in humidified air containing 10% CO2. Routinely, stocks were maintained in 75 cm^2 flasks and split at a 1:3 ratio when almost confluent. For experimental use, cells were seeded in appropriate plasticware such that confluence was established within 2-3 days and the cells were usually used 5-6 days after seeding. Prior to experimental use, confluent monolayers of cells were equilibrated in fresh medium for at least 2 hours prior to the start of the experiment. Compounds and agents that were only soluble in Me2SO were added to the culture medium of the cells in an equal volume of CO2-and temperature-equilibrated medium containing twice the finally required concentration of compound. […] Aqueous soluble agents were added at a 1:100 dilution directly to the cultures. In all cases, appropriate vehicle controls were performed and found to have no effect.
(§2) Whole cell lysates were prepared by aspiration of culture medium and immediately replacing it with boiling hot Laemmli sample buffer (Laemmli, U. K. (1970) Cleavage of structural proteins during the assembly of the head of bacteriophage T4. Nature 227, 680-685) supplemented with 5 mM EDTA.Na4. The samples were collected and heated at 100° C. for 5 minutes. Proteins were resolved by gel electrophoresis using 8% acrylamide slab gels (Hoefer SE 600 system, 16 cm) and the buffers described (Laemmli, 1970, loc cit). Gels were run overnight at 55 V. The gels were then equilibrated for 30 minutes in buffer at 4° C. containing 48 mM Tris, 39 mM glycine, 0.03% SDS (w/v) and 20% methanol (v/v), and electrotransferred to nitrocellulose filters (Hybond ECL, Amersham) at 4° C. After Ponceau S staining, the filters were blocked in PBS containing 1% (w/v) BSA and 0.05% (v/v) Tween-20. The filters were then incubated with primary antibody, rinsed and immunoreactive bands were detected using appropriate HRP-conjugated secondary antibody and chemiluminescence (ECL, Amersham).
To reveal other changes in VEGF-stimulated signalling processes, the filters were also probed with an antibody recognizing the activated forms of p42 and p44 MAP kinase.
(§3) Cell extracts were prepared and p120 (◯) and p100 (●) were detected by immunoblotting following SDS-PAGE, FIG. 2, Panel A. The same filter was also probed with the antibody recognizing the activated forms of p42 and p44 MAP kinase (arrowheads), FIG. 2, Panel B. Equal loading of lanes was verified as in FIG. 1. […] After 60 minutes of incubation, the effect was less apparent (FIG. 2A). The kinetics paralleled those of the increase in amount of activated MAP kinase (FIG. 2B).
(§4) Cell extracts were prepared and p120 (◯) and p100 (●) were detected by immunoblotting following SDS-PAGE, FIG. 3, Panel A. The same filter was also probed with the antibody recognizing the activated forms of p42 and p44 MAP kinase (arrowheads), FIG. 3, Panel B. Equal loading lanes was verified as in FIG. 1. […] The sensitivity of the increase in amount of activated MAP kinase paralleled that of the increase in p120/p100 mobility (FIG. 3B).
To determine which receptor(s) were responsible for the p120/p100 shift, the effects of placenta derived growth factor (P/GF), a VEGFR-1-specific ligand, were examined. Confluent monolayers of HUVECs were incubated for 5 minutes in the absence (lane labelled C) or presence of P/GF at 100 (P/GF100) or 1000 ng/ml (P/GF1000). […] In another experiment, the cells were preincubated for 30 minutes in the absence (−) or presence (+) of 5 μM of the VEGFR-2 inhibitor SU5416. […] In all cases, cell extracts were prepared and p120 (◯) and […] (●) were detected by immunoblotting following SDS-PAGE, FIGS. 4A and 4C. […]

p120 and p100 [1] = assay: p120/p100 band shift (mobility shift) by SDS-PAGE and immunoblotting in HUVEC; type: cell-based, Human; details: for p120/p100 electrophoretic mobility (band shift): 10 μM histamine, 200 nM PDB
Protocol: as §1, §2
Incubations were performed in triplicate and analyzed in parallel. The cells were extracted in Laemmli sample buffer and proteins were resolved by SDS-PAGE. […] Other experiments have shown that this is due to the loss of phosphate from the protein on serine and threonine residues.
as §3, §4
To determine which receptor(s) were responsible for the p120/p100 shift, the effects of placenta derived growth factor (P/GF), a VEGFR-1-specific ligand, were examined.

β-catenin, p120 and p100 = assay: PY20 anti-phosphotyrosine immunoprecipitation and immunoblotting; type: cell-based, Human; details: HUVEC; for β-catenin and p120/p100 in phosphotyrosine (PY20) immunoprecipitates: 2.6 nM VEGF or 10 μM histamine 5 minutes, 100 μM pervanadate 15 minutes
Protocol: For p120/p100-specific and phosphotyrosine (PY20) protein immunoprecipitations, the cells were lysed in boiling SDSSB (1% SDS, 25 mM Hepes, 2 mM EDTA, 0.1 M NaCl, 25 mM NaF, 1 mM vanadate, pH 7.6). The lysate was then collected, heated at 100° C. for 5 minutes, cooled and diluted with four volumes of ice-cold TX buffer that contained 2.9% instead of 1% Triton X-100. Immunoprecipitation was performed as described for TX buffer extractions.
Some cells were treated for 15 minutes with 100 μM of the broad-spectrum tyrosine phosphatase inhibitor, pervanadate. Lysates of the cells were prepared by immediate extraction into a boiling solution of an SDS-based buffer containing kinase and phosphatase inhibitors, as described above.
These extracts were then immunoprecipitated with antiphosphotyrosine antibody PY20 and analyzed by immunoblotting with PY20 (FIG. 7D).

cadherin/catenin complex = details: HUVEC, 2.6 nM VEGF, 5 minutes
Protocol: For analysis of the cadherin and its association with catenins, extraction and immunoprecipitations were performed at 4° C. Cultures were briefly rinsed with ice-cold PBS and then lysed in TX buffer (1% (v/v) Triton X-100, 25 mM Hepes, 2 mM EDTA, 0.1 M NaCl, 25 mM NaF, 1 mM vanadate, pH 7.6 (adjusted with NaOH), 1 mM PMSF, 10 μg/ml soybean trypsin inhibitor, 0.1 U/ml α2-macroglobulin, 10 μg/ml leupeptin). The cells were extracted into lysis buffer for 10-15 minutes and then collected after scraping the dish. The lysates were centrifuged at 14,000×g for 20 minutes. The supernatant was precleared with protein A-Sepharose (Pharmacia) for 1 hour and then incubated with primary antibody for 1 hour followed by a further 1 hour with protein A-Sepharose together with rabbit anti-mouse antibodies. After five washes in lysis buffer, immune complexes were dissociated by addition of Laemmli sample buffer followed by heating at 100° C. for 5 minutes. Protein analysis was by SDS-PAGE and immunoblotting as described above.

p120 and p100 [2] = details: HUVEC, 5 minutes; 2.6 nM VEGF, 10 μM histamine, 200 nM PDB
Protocol: [^32P]Phosphate labelling was performed using Puck's Saline A (P-2917; Sigma, supplemented with 10 mM Hepes (Gibco), 2 mM glutamine (Gibco), 1 mM CaCl2, 1 mM MgSO4 and 0.2% (v/v) foetal calf serum. Cultures were rinsed twice with medium and then incubated with the same medium containing 100 μCi/ml of [^32P]phosphate. Labelling was for 2 hours at 37° C. in humidified air with ambient CO2.
For phosphorylation analysis, cultures of HUVECs were labelled with [^32P]orthophosphate. After appropriate treatment, the cultures were lysed in boiling SDSSB and immunoprecipitated with the anti-p120/p100 antibody as described. For quantitation of [^32P]phosphate:protein, each immunoprecipitation was from protein extracted from ˜10 cm^2 of confluent culture. For the phosphoaminoacid analysis and Cleveland maps, protein from ˜60 cm^2 of confluent cells was used per immunoprecipitation. After separation by SDS-PAGE, for quantitation of [^32P]phosphate and p120/p100, protein was transferred to nitrocellulose and [^32P]phosphate incorporated into p120/p100 was detected by autoradiography. […] The area of filter containing p120 or p100 was detected by autoradiography, excised, and protein was acid hydrolysed to release phosphoaminoacids. These were then separated in two dimensions by high voltage electrophoresis at pH 1.9 and pH 3.5 and detected by autoradiography (Boyle et al., 1991). […]

HUVEC = details: 2.6 nM VEGF, 5 minutes
Protocol: Confluent monolayers of cells were fixed at room temperature for 15 minutes in 3% paraformaldehyde made up in PBS. Fixed cells were rinsed and then permeabilized by incubation with 0.5% Triton X-100 in PBS for 30 minutes. All antibodies were diluted in PBS containing 10% FCS, 0.1 M lysine, 0.3% Triton-X-100 and 0.02% azide. Incubation with antibody recognizing junction-associated protein was at 4° C. overnight followed by incubation with mouse or rabbit anti-phosphotyrosine antibody for 2 hours at room temperature. Secondary antibodies recognizing mouse and rabbit IgG conjugated to Cy3 or fluorescein, respectively, were applied together for 1 hour at room temperature. After rinsing, the samples were mounted under Citifluor and viewed with epifluorescence on a Nikon Eclipse E800 microscope. Photographs were taken using Kodak T-MAX film (400 ASA).
After 5 minutes, the cells were fixed and then stained. […] All images were from similarly timed exposures. Bar, 20 μm.

p120 and p100 [3] = details: HUVEC, 2.6 nM VEGF, 5 minutes
[4] = HUVEC preincubated 30 minutes with 5 μM, then 2.6 nM VEGF 5 minutes
[5] = HUVEC preincubated 30 minutes with 5 μM, then 10 μM histamine 5 minutes
[6] = HUVEC, 100 μM pervanadate, 15 minutes
[7] = HUVEC, 5 minutes, P/GF at 100 or 1000 ng/ml

Molecule: NCCc1c[nH]cn1 [Histamine, reference compound]
amount of activated (phosphorylated) p42/p44 MAP kinase (p42 and p44 MAP kinase; HUVEC, 5 minutes, 2.6 nM VEGF): increased the amounts of phospho-MAP kinases
amount of activated (phosphorylated) p42/p44 MAP kinase (p42 and p44 MAP kinase; HUVEC, 5 minutes, 2.6 nM VEGF, listed as histamine): effective; also recorded: produced effects
p120/p100 electrophoretic mobility (band shift) (p120 and p100 [1]; HUVEC, 5 minutes, 2.6 nM VEGF): effective; also recorded: increased electrophoretic mobility; also recorded: produced effects
β-catenin and p120/p100 in phosphotyrosine (PY20) immunoprecipitates (β-catenin, p120 and p100): did not reveal any hint

Molecule: CCCC(=O)O[C@@H]1[C@@H](C)[C@@]2(O)[C@@H](C=C(CO)C[C@]3(O)C(=O)C(C)=C[C@@H]23)[C@@H]2C(C)(C)[C@]12OC(=O)CCC [PDB, Phorbol-12,13-dibutyrate, reference compound]
amount of activated (phosphorylated) p42/p44 MAP kinase (p42 and p44 MAP kinase; HUVEC, 5 minutes, 2.6 nM VEGF): without effect
p120/p100 electrophoretic mobility (band shift) (p120 and p100 [1]; HUVEC, 5 minutes, 2.6 nM VEGF): increased electrophoretic mobility

effect on VEGF-stimulated activation of MAP kinase (p42 and p44 MAP kinase; [4]): blocked
effect on histamine-stimulated activation of MAP kinase (p42 and p44 MAP kinase; [5]): did not block
Molecule: Cc1cc(C)c(/C=C2\C(=O)Nc3ccccc32)[nH]1 [SU5416, reference compound]
effect on VEGF-stimulated increase in p120/p100 mobility (p120 and p100 [1]; [4]): blocked
effect on histamine-stimulated mobility shift in p120/p100 (p120 and p100 [1]; [5]): did not block

kinetics of increase in activated MAP kinase relative to p120/p100 mobility (p42 and p44 MAP kinase; HUVEC, 2.6 nM VEGF, time course): paralleled
sensitivity of increase in activated MAP kinase relative to p120/p100 mobility (p42 and p44 MAP kinase; HUVEC, 5 minutes, indicated concentrations of VEGF): paralleled
Molecule: VEGF
amount of activated (phosphorylated) p42/p44 MAP kinase (p42 and p44 MAP kinase; HUVEC, 5 minutes, 2.6 nM VEGF): clearly stimulated an increase; also recorded: effective; also recorded: produced effects
time at which increase in mobility of p120 and p100 was observed (p120 and p100 [1]; HUVEC, 2.6 nM (100 ng/ml) VEGF): ≤ 2 min
time for which increase in mobility of p120 and p100 was sustained (p120 and p100 [1]; HUVEC, 2.6 nM (100 ng/ml) VEGF): up to 30 minutes
effect on p120/p100 mobility after 60 minutes of incubation (p120 and p100 [1]; HUVEC, 2.6 nM VEGF, 60 minutes): less apparent
lowest concentration with observed effect on p120/p100 mobility (p120 and p100 [1]; HUVEC, 5 minutes): 0.1 nM
p120/p100 electrophoretic mobility (band shift) (p120 and p100 [1]; HUVEC, 5 minutes, 2.6 nM VEGF): migrate as faster, tighter bands; also recorded: effective; also recorded: increased electrophoretic mobility; also recorded: produced effects
association of catenins with cadherins (VE-cadherin, N-cadherin, α, β and γ catenin, p120, p100) (cadherin/catenin complex): no effect on association of any members of the complex
phosphate incorporation into 30 kDa and 17 kDa V8 cleavage products of p120 and p100 (p120 and p100 [2]): substantially decreased
colocalization of altered phosphotyrosine staining with β-catenin staining (HUVEC): did not colocalize
phosphotyrosine striations within the cells (HUVEC): increased
vinculin staining (HUVEC): appearance of vinculin-positive striations
focal contact protein tyrosine phosphorylation (PY20 immunoprecipitation) (β-catenin, p120 and p100; 2.6 nM VEGF, 5 minutes): increased
β-catenin and p120/p100 in phosphotyrosine (PY20) immunoprecipitates (β-catenin, p120 and p100): did not reveal any hint
phosphotyrosine in p120 and p100 (p120 and p100 [3]): not detected
amount of phosphoserine and phosphothreonine in p120 and p100 (p120 and p100 [3]; 10 μM histamine, 200 nM PDB): decreased

activation of MAP kinase (p42 and p44 MAP kinase; [6]): did lead to activation of MAP kinase
Molecule: pervanadate [reference compound]
mobility of p120/p100 (p120 and p100 [1]; [6]): did not affect the mobility
β-catenin and p120/p100 in phosphotyrosine (PY20) immunoprecipitates (β-catenin, p120 and p100): detected

activation of MAP kinase (p42 and p44 MAP kinase; [7]): did not lead to activation of MAP kinase
B1: P/GF: placenta derived growth factor, a VEGFR-1-specific ligand, from R & D Systems (protein, UniProt P49763 19-221, looked up)
Placenta growth factor: LPAVPPQQWALSAGNGSSEVEVVPFQEVWGRSYCRALERLVDVVSEYPSEVEHMFSPSCVSLLRCTGCCGDENLHCVPVETANVTMQLLKIRSGDRPSYVELTFSQHVRCECRHSPGRQSPDMPGDFRADAPSFLPPRRSLPMLFRMEWGCALTGSQSAVWPSSPVPEEIPRMHPGRNGKKQQRKPLREKMKPERCGDAVPRR
mobility shift in p120/p100 (p120 and p100 [1]; [7]): failed to stimulate a mobility shift
